{"source": "patent US8409619B2", "about": "“Oral drug delivery system for azole, moxifloxacin and rifampicin” (priority 2008, dated 2013)", "key": {"[1]": {"system": "M. tuberculosis H37Rv", "assay": "Experimental infection and chemotherapy (murine tuberculosis, cfu in lungs and spleen)", "format": "in vivo", "details": "for Log10 cfu Lung / Log10 cfu Spleen: mice infected i.v. with M. tuberculosis H37Rv, eight weeks oral chemotherapy, sacrificed day 62, mean ± S.D.; for reduction of bacterial burden in organs / cfu reduction from lungs and spleen as compared to untreated controls: mice, eight weeks of chemotherapy; for cfu reduction from lungs and spleen as compared to untreated controls: free form daily/twice daily or encapsulated form weekly"}, "[2]": {"assay": "not given", "remark": "listed apart in the source"}}, "note": "Like-named read-outs stand apart in the source and are kept apart here."}
{"molecule": "Clc1ccc(COC(Cn2ccnc2)c2ccc(Cl)cc2Cl)cc1", "note": "(stereo not drawn) [Free econazole, econazole]", "values": [{"measurement": "Log10 cfu Lung", "setting": "[1]", "result": "4.87 ± 0.040", "unit": "Log10 cfu"}, {"measurement": "Log10 cfu Spleen", "setting": "[1]", "result": "4.89 ± 0.020", "unit": "Log10 cfu"}, {"measurement": "reduction of bacterial burden in organs", "setting": "[1]", "result": "about 2 log cfu"}, {"measurement": "cfu reduction from lungs and spleen as compared to untreated controls", "setting": "[1]", "result": "approximately 2 Log10 cfu"}, {"measurement": "time up to which drug was detected in organs", "setting": "mouse, in vivo, po", "result": "up to 12 h"}, {"measurement": "time up to which drug was detectable in plasma", "setting": "[2]; mouse, in vivo, po", "result": "3 to 4", "unit": "h"}]}
{"molecule": "COc1c(N2C[C@@H]3CCCN[C@@H]3C2)c(F)cc2c(=O)c(C(=O)O)cn(C3CC3)c12", "note": "[Free moxifloxacin, moxifloxacin]", "values": [{"measurement": "Log10 cfu Lung", "setting": "[1]", "result": "4.96 ± 0.013", "unit": "Log10 cfu"}, {"measurement": "Log10 cfu Spleen", "setting": "[1]", "result": "4.96 ± 0.013", "unit": "Log10 cfu"}, {"measurement": "reduction of bacterial burden in organs", "setting": "[1]", "result": "about 2 log cfu"}, {"measurement": "cfu reduction from lungs and spleen as compared to untreated controls", "setting": "[1]", "result": "approximately 2 Log10 cfu"}, {"measurement": "time up to which drug was detected in organs", "setting": "oral free drug, mice", "result": "≤ 24", "unit": "h"}, {"measurement": "time up to which drug was detectable in plasma", "setting": "[2]; oral free drug, mice", "result": "up to 12 h"}]}
